From patent US11046662B2, “2-aryl-4-hydroxy-1,3-thiazole derivatives useful as TRPM8-inhibitors in treatment of neuralgia, pain, COPD and asthma” (DOMPÉ FARMACEUTICI S.P.A., priority 2014, dated 2021)
One block for each compound: values may come before it.

Biological target: human TRPM8 (Homo sapiens (Human), UniProt Q7Z2W7)
Test: HTS cellular-based calcium assay for human TRPM8 antagonists (FLIPR TETRA)
Settings: HEK293/hTRPM8 cells, agonist Cooling Agent 10 at EC80, Ca2+ fluorescence

human TRPM8, sequence (Q7Z2W7 whole entry): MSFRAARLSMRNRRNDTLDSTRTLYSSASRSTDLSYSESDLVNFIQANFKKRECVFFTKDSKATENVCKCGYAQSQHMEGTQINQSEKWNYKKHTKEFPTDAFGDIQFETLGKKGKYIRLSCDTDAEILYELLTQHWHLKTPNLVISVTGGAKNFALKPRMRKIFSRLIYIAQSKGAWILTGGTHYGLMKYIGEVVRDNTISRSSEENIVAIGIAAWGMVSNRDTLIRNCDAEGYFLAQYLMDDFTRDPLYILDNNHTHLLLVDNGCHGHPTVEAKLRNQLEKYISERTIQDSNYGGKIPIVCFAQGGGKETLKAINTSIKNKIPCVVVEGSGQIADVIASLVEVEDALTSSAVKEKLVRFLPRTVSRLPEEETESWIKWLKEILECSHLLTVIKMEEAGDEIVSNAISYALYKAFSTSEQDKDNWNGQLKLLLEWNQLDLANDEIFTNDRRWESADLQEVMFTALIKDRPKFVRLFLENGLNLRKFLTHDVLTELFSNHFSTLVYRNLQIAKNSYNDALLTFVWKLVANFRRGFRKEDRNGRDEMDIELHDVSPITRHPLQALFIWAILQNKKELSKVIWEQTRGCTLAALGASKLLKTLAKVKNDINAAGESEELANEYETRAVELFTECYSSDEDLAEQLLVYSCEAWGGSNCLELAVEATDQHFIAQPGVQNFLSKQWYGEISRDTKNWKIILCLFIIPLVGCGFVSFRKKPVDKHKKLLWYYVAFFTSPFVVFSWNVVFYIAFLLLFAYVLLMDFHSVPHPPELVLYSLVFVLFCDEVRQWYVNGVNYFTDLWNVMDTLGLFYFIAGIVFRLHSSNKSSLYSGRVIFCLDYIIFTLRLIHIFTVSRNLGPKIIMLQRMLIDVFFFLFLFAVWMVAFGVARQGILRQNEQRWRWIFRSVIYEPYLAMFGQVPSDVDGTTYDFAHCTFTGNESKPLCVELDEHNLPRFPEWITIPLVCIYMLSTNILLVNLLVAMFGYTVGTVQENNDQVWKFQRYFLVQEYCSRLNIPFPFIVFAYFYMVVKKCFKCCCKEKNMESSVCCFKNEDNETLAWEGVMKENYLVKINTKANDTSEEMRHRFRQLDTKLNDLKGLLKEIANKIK

IC50: 356 nM
SMILES: CCC(=O)c1sc(-c2cccnc2)nc1O [Compound 25, 1-[4-hydroxy-2-(pyridin-3-yl)-1,3-thiazol-5-yl]propan-1-one]

IC50: 453 nM
SMILES: CCC(=O)c1sc(-c2ccncc2)nc1O [Compound 26, 1-[4-hydroxy-2-(pyridin-4-yl)-1,3-thiazol-5-yl]propan-1-one]

IC50: 145 nM
SMILES: CCC(=O)c1sc(-c2ccccn2)nc1O [Compound 27, 1-[4-hydroxy-2-(pyridin-2-yl)-1,3-thiazol-5-yl]propan-1-one]

IC50: 23 nM
SMILES: CCC(=O)c1sc(-c2cccc(O)c2)nc1O [Compound 28, 1-[4-hydroxy-2-(3-hydroxyphenyl)-1,3-thiazol-5-yl]propan-1-one]

IC50: 326 nM
SMILES: CCC(=O)c1sc(-c2ccc(O)cc2)nc1O [Compound 29, 1-[4-hydroxy-2-(4-hydroxyphenyl)-1,3-thiazol-5-yl]propan-1-one]

IC50: 231 nM
SMILES: CCC(=O)c1sc(-c2cccc(C)c2)nc1O [Compound 30, 1-[4-hydroxy-2-(3-methylphenyl)-1,3-thiazol-5-yl]propan-1-one]

IC50: 236 nM
SMILES: CCC(=O)c1sc(-c2ccc(C)cc2)nc1O [Compound 31, 1-[4-hydroxy-2-(4-methylphenyl)-1,3-thiazol-5-yl]propan-1-one]

IC50: 450 nM
SMILES: CCC(=O)c1sc(-c2cccc(N)c2)nc1O [Compound 32, 1-[2-(3-aminophenyl)-4-hydroxy-1,3-thiazol-5-yl]propan-1-one]

IC50: 632 nM
SMILES: CCC(=O)c1sc(-c2ccc(N)cc2)nc1O [Compound 33, 1-[2-(4-aminophenyl)-4-hydroxy-1,3-thiazol-5-yl]propan-1-one]

IC50: 233 nM
SMILES: CCC(=O)c1sc(-c2cccc(NC)c2)nc1O [Compound 34, 1-{4-hydroxy-2-[3-(methylamino)phenyl]-1,3-thiazol-5-yl}propan-1-one]

IC50: 789 nM
SMILES: CCC(=O)c1sc(-c2ccc(NC)cc2)nc1O [Compound 35, 1-{4-hydroxy-2-[4-(methylamino)phenyl]-1,3-thiazol-5-yl}propan-1-one]

IC50: 50 nM
SMILES: CCC(=O)c1sc(-c2ccc(F)cc2)nc1O [Compound 36, 1-[2-(4-fluorophenyl)-4-hydroxy-1,3-thiazol-5-yl]propan-1-one]

IC50: 331 nM
SMILES: CC(C)CC(=O)c1sc(-c2cccc(F)c2)nc1O [Compound 38, 1-[2-(3-fluorophenyl)-4-hydroxy-1,3-thiazol-5-yl]-3-methylbutan-1-one]

IC50: 523 nM
SMILES: COCC(=O)c1sc(-c2cccc(F)c2)nc1O [Compound 39, 1-[2-(3-fluorophenyl)-4-hydroxy-1,3-thiazol-5-yl]-2-methoxyethanone]

IC50: 236 nM
SMILES: CCC(=S)c1sc(-c2cccc(F)c2)nc1O [Compound 40, 1-[2-(3-fluorophenyl)-4-hydroxy-1,3-thiazol-5-yl]propane-1-thione]

IC50: 388 nM
SMILES: CON(C)C(=S)c1sc(-c2cccc(F)c2)nc1O [Compound 41, 2-(3-fluorophenyl)-4-hydroxy-N-methoxy-N-methyl-1,3-thiazole-5-carbothioamide]

IC50: 986 nM
SMILES: CC/C(=N\OC)c1sc(-c2cccc(F)c2)nc1O [Compound 42, 2-(3-fluorophenyl)-5-[(1E)—N-methoxypropanimidoyl]-1,3-thiazol-4-ol]

IC50: 1210 nM
SMILES: CCC(=N)c1sc(-c2cccc(F)c2)nc1O [Compound 43, 2-(3-fluorophenyl)-5-propanimidoyl-1,3-thiazol-4-ol]

IC50: 1360 nM
SMILES: CC/C(=N\O)c1sc(-c2cccc(F)c2)nc1O [Compound 44, 2-(3-fluorophenyl)-5-[(1E)—N-hydroxypropanimidoyl]-1,3-thiazol-4-ol]

IC50: 287 nM
SMILES: O=C(c1sc(-c2cccc(F)c2)nc1O)C1CC1 [Compound 45, cyclopropyl[2-(3-fluorophenyl)-4-hydroxy-1,3-thiazol-5-yl]methanone]

Continued, compound first:

SMILES: CCC(=O)c1sc(-c2cccc(F)c2)nc1O [Compound 1, 1-[2-(3-fluorophenyl)-4-hydroxy-1,3-thiazol-5-yl]propan-1-one]
IC50: 32 nM

SMILES: CC(=O)c1sc(-c2cccc(F)c2)nc1O [Compound 4, 1-(2-(3-fluorophenyl)-4-hydroxythiazol-5-yl)ethanone]
IC50: 958 nM

SMILES: CC(C)C(=O)c1sc(-c2cccc(F)c2)nc1O [Compound 5, 1-[2-(3-fluorophenyl)-4-hydroxy-1,3-thiazol-5-yl]-2-methylpropan-1-one]
IC50: 299 nM

SMILES: CON(C)C(=O)c1sc(-c2cccs2)nc1O [Compound 6, 4-hydroxy-N-methoxy-N-methyl-2-(thiophen-2-yl)-1,3-thiazole-5-carboxamide]
IC50: 156 nM

SMILES: CCC(=O)c1sc(-c2cccs2)nc1O [Compound 7, 1-[4-hydroxy-2-(thiophen-2-yl)-1,3-thiazol-5-yl]propan-1-one]
IC50: 596 nM

SMILES: CON(C)C(=O)c1sc(-c2ccccc2C)nc1O [Compound 8, 4-hydroxy-N-methoxy-N-methyl-2-(2-methylphenyl)-1,3-thiazole-5-carboxamide]
IC50: 86 nM

SMILES: CCC(=O)c1sc(-c2ccccc2C)nc1O [Compound 9, 1-[4-hydroxy-2-(2-methylphenyl)-1,3-thiazol-5-yl]propan-1-one]
IC50: 411 nM

SMILES: CON(C)C(=O)c1sc(-c2ccccc2Br)nc1O [Compound 10, 2-(2-bromophenyl)-4-hydroxy-N-methoxy-N-methyl-1,3-thiazole-5-carboxamide]
IC50: 435 nM

SMILES: CCC(=O)c1sc(-c2ccccc2Br)nc1O [Compound 11, 1-[2-(2-bromophenyl)-4-hydroxy-1,3-thiazol-5-yl]propan-1-one]
IC50: 912 nM

SMILES: CCC(=O)c1sc(-c2ccccc2O)nc1O [Compound 13, 1-[2-(2-hydroxyphenyl)-4-hydroxy-1,3-thiazol-5-yl]propan-1-one]
IC50: 112 nM

SMILES: CCC(=O)c1sc(-c2cccc(Br)c2)nc1O [Compound 14, 1-[2-(3-bromophenyl)-4-hydroxy-1,3-thiazol-5-yl]propan-1-one]
IC50: 1730 nM

SMILES: CCC(=O)c1sc(-c2ccco2)nc1O [Compound 15, 1-[2-(furan-2-yl)-4-hydroxy-1,3-thiazol-5-yl]propan-1-one]
IC50: 236 nM

SMILES: CCC(=O)c1sc(-c2ccc[nH]2)nc1O [Compound 16, 1-[4-hydroxy-2-(1H-pyrrol-2-yl)-1,3-thiazol-5-yl]propan-1-one]
IC50: 123 nM

SMILES: CCC(=O)c1sc(-c2cccn2C)nc1O [Compound 17, 1-[4-hydroxy-2-(1-methyl-1H-pyrrol-2-yl)-1,3-thiazol-5-yl]propan-1-one]
IC50: 323 nM

SMILES: CCC(=O)c1sc(-c2cncn2C)nc1O [Compound 18, 1-[4-hydroxy-2-(1-methyl-1H-imidazol-5-yl)-1,3-thiazol-5-yl]propan-1-one]
IC50: 112 nM

SMILES: CCC(=O)c1sc(-c2cnc[nH]2)nc1O [Compound 19, 1-[4-hydroxy-2-(1H-imidazol-5-yl)-1,3-thiazol-5-yl]propan-1-one]
IC50: 302 nM

SMILES: CCC(=O)c1sc(-c2cnn(C)c2)nc1O [Compound 20, 1-[4-hydroxy-2-(1-methyl-1H-pyrazol-4-yl)-1,3-thiazol-5-yl]propan-1-one]
IC50: 89 nM

SMILES: CCCC(=O)c1sc(-c2cccs2)nc1O [Compound 21, 1-[4-hydroxy-2-(thiophen-2-yl)-1,3-thiazol-5-yl]butan-1-one]
IC50: 64 nM

SMILES: CC(C)CC(=O)c1sc(-c2cccs2)nc1O [Compound 22, 1-[4-hydroxy-2-(thiophen-2-yl)-1,3-thiazol-5-yl]-3-methylbutan-1-one]
IC50: 85 nM

SMILES: CCC(=O)c1sc(-c2ncon2)nc1O [Compound 23, 1-[4-hydroxy-2-(1,2,4-oxadiazol-3-yl)-1,3-thiazol-5-yl]propan-1-one]
IC50: 99 nM

SMILES: CCC(=O)c1sc(-c2ccno2)nc1O [Compound 24, 1-[4-hydroxy-2-(1,2-oxazol-5-yl)-1,3-thiazol-5-yl]propan-1-one]
IC50: 123 nM
